Literature values, collected in patent US20070014883A1, “Method for treating osteoarthritis” (priority 2005, published 2007).
“Also recorded” adds a separate entry of the source.

Assays:
MMP-2 = target: T1, MMP-2 (Homo sapiens, UniProt P08253); conditions: for Inhibitory activity against MMP-2, potency relative to captopril: more potent than captopril; for Inhibition of MMP-2: reference 24
T1 sequence (P08253 110-660): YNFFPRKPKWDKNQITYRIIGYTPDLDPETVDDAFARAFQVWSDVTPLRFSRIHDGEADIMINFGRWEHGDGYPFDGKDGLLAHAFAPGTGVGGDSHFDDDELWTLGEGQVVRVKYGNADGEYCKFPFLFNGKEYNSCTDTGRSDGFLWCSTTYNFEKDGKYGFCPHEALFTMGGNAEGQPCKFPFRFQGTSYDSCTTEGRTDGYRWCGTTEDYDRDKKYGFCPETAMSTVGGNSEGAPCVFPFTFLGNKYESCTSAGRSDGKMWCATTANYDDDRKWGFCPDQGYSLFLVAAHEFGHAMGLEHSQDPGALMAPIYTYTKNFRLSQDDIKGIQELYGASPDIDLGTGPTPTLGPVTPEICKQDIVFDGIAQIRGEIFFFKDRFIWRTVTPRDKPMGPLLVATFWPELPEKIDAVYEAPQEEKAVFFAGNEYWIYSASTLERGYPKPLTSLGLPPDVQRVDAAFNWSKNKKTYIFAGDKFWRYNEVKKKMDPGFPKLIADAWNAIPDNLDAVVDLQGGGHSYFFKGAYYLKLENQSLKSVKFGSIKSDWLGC

MMP-1 = target: T2, MMP-1 (Homo sapiens, UniProt P03956); conditions: reference 24
T2 sequence (P03956 100-469): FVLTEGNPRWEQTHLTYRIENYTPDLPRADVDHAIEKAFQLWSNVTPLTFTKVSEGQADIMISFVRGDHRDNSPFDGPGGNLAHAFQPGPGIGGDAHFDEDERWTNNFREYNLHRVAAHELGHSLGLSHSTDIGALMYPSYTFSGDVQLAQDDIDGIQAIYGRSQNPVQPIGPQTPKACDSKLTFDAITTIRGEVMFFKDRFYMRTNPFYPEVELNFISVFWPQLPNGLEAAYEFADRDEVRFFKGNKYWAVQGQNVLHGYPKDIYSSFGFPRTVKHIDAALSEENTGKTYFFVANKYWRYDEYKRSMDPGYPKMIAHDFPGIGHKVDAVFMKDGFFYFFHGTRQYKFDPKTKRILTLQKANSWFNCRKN

MMP-9 = MMP-9 (Homo sapiens, UniProt P14780); conditions: for Inhibitory activity against MMP-9, potency relative to captopril: more potent than captopril; for Inhibition of MMP-9: reference 24
MMP-9, sequence (P14780 94-707, species assumed): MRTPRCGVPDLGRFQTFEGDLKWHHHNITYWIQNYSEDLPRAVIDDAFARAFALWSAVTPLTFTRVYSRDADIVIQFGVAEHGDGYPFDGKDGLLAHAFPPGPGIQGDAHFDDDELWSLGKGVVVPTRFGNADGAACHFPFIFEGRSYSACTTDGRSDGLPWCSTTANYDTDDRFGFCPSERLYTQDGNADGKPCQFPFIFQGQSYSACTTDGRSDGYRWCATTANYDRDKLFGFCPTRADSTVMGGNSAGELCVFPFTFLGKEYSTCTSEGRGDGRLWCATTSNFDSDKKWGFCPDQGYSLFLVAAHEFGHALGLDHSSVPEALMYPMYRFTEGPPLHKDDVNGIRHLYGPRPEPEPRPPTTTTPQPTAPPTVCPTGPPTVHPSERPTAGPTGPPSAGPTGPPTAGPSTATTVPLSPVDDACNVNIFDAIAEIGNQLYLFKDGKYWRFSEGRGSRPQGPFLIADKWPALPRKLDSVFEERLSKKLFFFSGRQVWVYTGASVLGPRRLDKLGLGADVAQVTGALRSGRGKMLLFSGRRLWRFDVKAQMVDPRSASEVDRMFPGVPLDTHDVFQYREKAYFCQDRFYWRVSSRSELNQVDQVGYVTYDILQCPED

**Q.** With O=C1CCC(Cc2ccc(O)c(O)c2)O1 (stereo not shown) [M1, δ-(3,4-dihydroxy-phenyl)-γ-valerolactone] as the molecule, how does the “Inhibitory activity against MMP-2, potency relative to captopril” value (MMP-2) read?
**A.** 100 fold

**Q.** What about the “Inhibition of MMP-2” value (MMP-2) of the same molecule?
**A.** strong inhibitory activity; also recorded: more potent than the parent molecules

**Q.** What about the “Inhibition of MMP-1” value (MMP-1) of the same molecule?
**A.** strong inhibitory activity; also recorded: more potent than the parent molecules

**Q.** And the “Inhibitory activity against MMP-9, potency relative to captopril” value (MMP-9)?
**A.** 100 fold

**Q.** What about the “Inhibition of MMP-9” value (MMP-9) of the same molecule?
**A.** strong inhibitory activity; also recorded: more potent than the parent molecules

**Q.** What does the source list for COc1cc(CC2CCC(=O)O2)ccc1O (stereo not shown) [M2, δ-(3-methoxy-4-hydroxyphenyl)-γ-valerolactone]?
**A.** Inhibitory activity against MMP-2, potency relative to captopril (MMP-2): 100 fold; Inhibition of MMP-2 (MMP-2): strong inhibitory activity; also recorded: more potent than the parent molecules; Inhibition of MMP-1 (MMP-1): strong inhibitory activity; also recorded: more potent than the parent molecules; Inhibitory activity against MMP-9, potency relative to captopril (MMP-9): 100 fold; Inhibition of MMP-9 (MMP-9): strong inhibitory activity; also recorded: more potent than the parent molecules
